We go through 27 compounds from PubChem BioAssay AID330 (DTP/NCI, 2004).

Where “and” joins values, the source holds several entries; their conditions need not be identical. Identical values can stand only once. Toxic doses and inconclusive results are not listed.

The assay relates to P388 leukemia ip, CD2F1 mice, survival T/C. Briefly: NCI In Vivo Anticancer Drug Screen. Data for tumor model P388 Leukemia (intraperitoneal) in CD2F1 (CDF1) mice. The settings on record: endpoint: median survival time, higher = longer survival. The procedure, abridged:
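Mice carrying the transplanted tumor received test compound or vehicle. Survival was recorded in each group, and the value is the treated-group measurement divided by that of the vehicle-treated control group.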

Setting [1] is: dose: 1.56 mg/kg/injection, schedule: Q01DX009 (ip), vehicle: saline with Tween-80.
Where [2] appears, read: dose: 12.5 mg/kg/injection, schedule: Q01DX009 (ip), vehicle: saline with Tween-80.
Setting [3] is: dose: 50.0 mg/kg/injection, schedule: Q01DX009 (ip), vehicle: Klucel (hydroxypropylcellulose) (HPC).
[4] abbreviates: dose: 100.0 mg/kg/injection, schedule: Q01DX009 (ip), vehicle: Klucel (hydroxypropylcellulose) (HPC).
Setting [5] is: dose: 200.0 mg/kg/injection, schedule: Q01DX009 (ip), vehicle: Klucel (hydroxypropylcellulose) (HPC).
Setting [6] is: dose: 60.0 mg/kg/injection, schedule: Q01DX005 (ip), vehicle: saline with Tween-80.
The mark [7] stands for this setting: dose: 120.0 mg/kg/injection, schedule: Q01DX005 (ip), vehicle: saline with Tween-80.
Where [8] appears, read: dose: 50.0 mg/kg/injection, schedule: Q01DX005 (ip), vehicle: saline with Tween-80.
The mark [9] stands for this setting: dose: 50.0 mg/kg/injection, schedule: Q01DX005 (ip), vehicle: Klucel (hydroxypropylcellulose) (HPC).
[10] abbreviates: dose: 100.0 mg/kg/injection, schedule: Q01DX005 (ip), vehicle: Klucel (hydroxypropylcellulose) (HPC).
Setting [11] is: dose: 200.0 mg/kg/injection, schedule: Q01DX005 (ip), vehicle: Klucel (hydroxypropylcellulose) (HPC).
Setting [12] is: dose: 50.0 mg/kg/injection, schedule: Q01DX009 (ip), vehicle: saline with Tween-80.
Setting [13] is: dose: 240.0 mg/kg/injection, schedule: Q01DX005 (ip), vehicle: saline with Tween-80.
Where [14] appears, read: dose: 6.25 mg/kg/injection, schedule: Q01DX009 (ip), vehicle: saline with Tween-80.
The mark [15] stands for this setting: dose: 60.0 mg/kg/injection, schedule: Q01DX005 (ip), vehicle: Klucel (hydroxypropylcellulose) (HPC).
Where [16] appears, read: dose: 120.0 mg/kg/injection, schedule: Q01DX005 (ip), vehicle: Klucel (hydroxypropylcellulose) (HPC).
Setting [17] is: dose: 240.0 mg/kg/injection, schedule: Q01DX005 (ip), vehicle: Klucel (hydroxypropylcellulose) (HPC).
Where [18] appears, read: dose: 25.0 mg/kg/injection, schedule: Q01DX009 (ip), vehicle: saline with Tween-80.

As to `O=C1c2cccc3cc([N+](=O)[O-])cc(c23)C(=O)N1CCN1CCCC1`, the T/C is, setting by setting: under setting [1], 118 % of control; under setting [2], 150 % of control.

Consider `Cc1cc(C)cc(N=Cc2ccc(C=Nc3cc(C)cc(C)c3)cc2)c1`, for which the T/C was 92 % of control under setting [3], 95 % of control under setting [4] and 100 % of control under setting [5].

In the case of `COC(=O)c1nc(N)nc(C(=O)OC)c1C(=O)c1ccc(Cl)cc1Cl`, the T/C is 95 % of control under setting [6] and 100 % of control under setting [7].

Consider `CC1=NS(C)(=O)=c2ccc(C)cc2=N1` (configuration not stated), for which the T/C (dose: 50.0 mg/kg/injection, schedule: Q01DX005 (ip), vehicle: acetone) was 100 % of control; the T/C (dose: 100.0 mg/kg/injection, schedule: Q01DX005 (ip), vehicle: acetone) was 100 % of control; the T/C (dose: 200.0 mg/kg/injection, schedule: Q01DX005 (ip), vehicle: acetone) is 100 % of control.

For `CC(C)(C)C1=CCN(C(C)(C)/C=N\O)CC1`, the T/C reads like this: (dose: 12.5 mg/kg/injection, schedule: Q01DX005 (ip), vehicle: saline with Tween-80) 97 % of control; (dose: 25.0 mg/kg/injection, schedule: Q01DX005 (ip), vehicle: saline with Tween-80) 100 % of control; under setting [8], 100 % of control and 96 % of control.

As to `CC1CCN(CC#CCN2C(=O)CCC2=O)CC1`, the T/C is 104 % of control (dose: 25.0 mg/kg/injection, schedule: Q01DX005 (ip), vehicle: Klucel (hydroxypropylcellulose) (HPC)); 103 % of control under setting [9]; 107 % of control under setting [10]; 107 % of control under setting [11].

With `COc1cccc(C(=O)N/N=C(\C#N)c2cccc(OC)c2)c1`, the T/C was 97 % of control under setting [8] and 94 % of control (dose: 100.0 mg/kg/injection, schedule: Q01DX005 (ip), vehicle: saline with Tween-80).

Regarding `CCCc1c(C(=O)OCC)c(-c2ccccc2)c(CCC)c2c1-c1cccc3cccc-2c13`, the T/C by setting is: under setting [12], 99 % of control; (dose: 100.0 mg/kg/injection, schedule: Q01DX009 (ip), vehicle: saline with Tween-80) 95 % of control; (dose: 200.0 mg/kg/injection, schedule: Q01DX009 (ip), vehicle: saline with Tween-80) 92 % of control.

In the case of `O=C(Nc1cc(-c2ccccc2)nn1-c1ccccc1)c1ccccc1F`, the T/C was 103 % of control under setting [6], 103 % of control under setting [7] and 111 % of control under setting [13].

On to `CCOC(=O)C1=C(Nc2ccc(F)cc2)C(=O)N(C(C)(C)C)C1`, for which the T/C reads like this: under setting [6], 100 % of control; under setting [7], 106 % of control; under setting [13], 93 % of control.

Consider `Cc1cs/c(=N/N=C2C=CC(=O)C=C2)n1O`, for which the T/C runs as follows: under setting [3], 102 % of control; under setting [4], 107 % of control; under setting [5], 101 % of control.

On to `NC(=S)c1ccc(C=Nc2ccc(Cl)cc2)cc1`, for which the T/C reads like this: (dose: 50.0 mg/kg/injection, schedule: Q01DX001 (ip), vehicle: other) 102 % of control; (dose: 100.0 mg/kg/injection, schedule: Q01DX001 (ip), vehicle: other) 98 % of control.

For the compound `CCOc1ccc(C2c3ccc(OC)cc3OC(C)(C)C2c2ccccc2)cc1[N+](=O)[O-]` (configuration not stated), the T/C under setting [9] is 101 % of control, the T/C under setting [10] is 99 % of control and the T/C under setting [11] was 95 % of control.

For the compound `CC(=O)Nc1cc2ccccc2c(Br)n1`, the T/C was 90 % of control (dose: 100.0 mg/kg/injection, schedule: Q01DX001 (ip), vehicle: saline with Tween-80); 97 % of control (dose: 200.0 mg/kg/injection, schedule: Q01DX001 (ip), vehicle: saline with Tween-80); 97 % of control (dose: 400.0 mg/kg/injection, schedule: Q01DX001 (ip), vehicle: saline with Tween-80).

With `CCN(CC)Cc1cc(N=Nc2ccc([N+](=O)[O-])c(OC)c2)c2ccccc2c1O`, the T/C is, setting by setting: under setting [3], 99 % of control; under setting [4], 95 % of control; under setting [5], 97 % of control.

For the compound `COc1ccc2c(C)cc(NN)nc2c1`, the T/C is, setting by setting: (dose: 6.25 mg/kg/injection, schedule: Q01DX005 (ip), vehicle: Klucel (hydroxypropylcellulose) (HPC)) 104 % of control; (dose: 12.5 mg/kg/injection, schedule: Q01DX005 (ip), vehicle: Klucel (hydroxypropylcellulose) (HPC)) 103 % of control.

For the compound `CSC(=S)NN=C1CCCCC1`, the T/C was 97 % of control (dose: 0.78 mg/kg/injection, schedule: Q01DX009 (ip), vehicle: saline with Tween-80); 108 % of control under setting [1]; 105 % of control (dose: 3.13 mg/kg/injection, schedule: Q01DX009 (ip), vehicle: saline with Tween-80); 98 % of control under setting [14]; 113 % of control under setting [2].

With `CSc1nc(Cl)cc(N2CC2)n1`, the T/C (dose: 0.5 mg/kg/injection, schedule: Q04DX003 (ip), vehicle: saline) is 110 % of control; the T/C (dose: 1.0 mg/kg/injection, schedule: Q04DX003 (ip), vehicle: saline) is 100 % of control; the T/C (dose: 2.0 mg/kg/injection, schedule: Q04DX003 (ip), vehicle: saline) was 100 % of control.

Consider `CN(C)CCN(C)CCN1C(=O)c2ccccc2C1=O`, for which the T/C (dose: 100.0 mg/kg/injection, schedule: Q04DX002 (ip), vehicle: saline) was 102 % of control; the T/C (dose: 200.0 mg/kg/injection, schedule: Q04DX002 (ip), vehicle: saline) is 100 % of control; the T/C (dose: 400.0 mg/kg/injection, schedule: Q04DX002 (ip), vehicle: saline) was 100 % of control.

Regarding `O=C(Nc1ccc(Cl)cc1)Nc1nnc2nc(C(C(=O)c3ccc(Cl)cc3Cl)c3nc4nnc(NC(=O)Nc5ccc(Cl)cc5)n4[nH]c3=O)c(=O)[nH]n12`, the T/C is 103 % of control under setting [6], 101 % of control under setting [7] and 101 % of control under setting [13].

Consider `CC(C)OSc1ccccc1`, for which the T/C was 113 % of control (dose: 12.5 mg/kg/injection, schedule: Q01DX001 (ip), vehicle: Klucel (hydroxypropylcellulose) (HPC)); 113 % of control (dose: 25.0 mg/kg/injection, schedule: Q01DX001 (ip), vehicle: Klucel (hydroxypropylcellulose) (HPC)); 102 % of control (dose: 50.0 mg/kg/injection, schedule: Q01DX001 (ip), vehicle: Klucel (hydroxypropylcellulose) (HPC)); 103 % of control and 107 % of control and 97 % of control (dose: 100.0 mg/kg/injection, schedule: Q01DX001 (ip), vehicle: Klucel (hydroxypropylcellulose) (HPC)).

In the case of `COc1ccc(C(=O)CC2=NC3NN(c4ccccc4)C(=O)C3=C2CC(=O)c2ccc(OC)cc2)cc1` (configuration not stated), the T/C is, setting by setting: (dose: 60.0 mg/kg/injection, schedule: Q01DX005 (ip), vehicle: suspension in saline) 101 % of control; (dose: 120.0 mg/kg/injection, schedule: Q01DX005 (ip), vehicle: suspension in saline) 108 % of control; (dose: 240.0 mg/kg/injection, schedule: Q01DX005 (ip), vehicle: suspension in saline) 112 % of control.

Take `CC1SCC(=O)N1c1nncs1` (configuration not stated): the T/C by setting is: (dose: 30.0 mg/kg/injection, schedule: Q01DX005 (ip), vehicle: Klucel (hydroxypropylcellulose) (HPC)) 101 % of control and 104 % of control; under setting [15], 102 % of control and 106 % of control; under setting [16], 106 % of control and 123 % of control; under setting [17], 123 % of control; (dose: 480.0 mg/kg/injection, schedule: Q01DX005 (ip), vehicle: Klucel (hydroxypropylcellulose) (HPC)) 162 % of control.

`Clc1nc(Cl)nc(-c2cn(-c3ccccc3)c3ccccc23)n1`: the T/C reads like this: under setting [2], 100 % of control; under setting [18], 90 % of control; under setting [12], 100 % of control.

On to `CN1C(=O)[C@@H]2N(N(C)C1=O)[C@@]1(Br)C(=O)N(C)C(=O)[C@@]21Br`, for which the T/C is 100 % of control under setting [15], 105 % of control under setting [16] and 101 % of control under setting [17].

As for `CC(=O)Oc1cc2c(cc1C(NC(N)=O)c1ccc3c(c1)OCO3)OCO2` (configuration not stated), the T/C is, setting by setting: under setting [15], 100 % of control; under setting [16], 93 % of control; under setting [17], 92 % of control.

As to `Nc1[nH]c(=O)ncc1C(=O)NC(CO)C(=O)O` (configuration not stated), the T/C by setting is: under setting [14], 90 % of control; under setting [2], 100 % of control; under setting [18], 95 % of control.
